Measurements taken from PubChem BioAssay (NCI).
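How tested: cells in 96-well plates exposed to compound for 48 hours at five concentrations. GI50 marks 50% less growth. TGI is the concentration that stops growth completely.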

Legend:
Test in all cases: NCI anticancer screen, dose series, 48 h
EKVX NSCLC = system: EKVX NSCLC
HCC-2998 colon = system: HCC-2998 colon
HCT-116 colon = system: HCT-116 colon
HCT-15 colon = system: HCT-15 colon
HOP-62 NSCLC = system: HOP-62 NSCLC
K-562 leukemia = system: K-562 leukemia
NCI-H226 lung = system: NCI-H226 lung
NCI-H23 lung = system: NCI-H23 lung
OVCAR-8 ovarian = system: OVCAR-8 ovarian
IGROV1 ovarian = system: IGROV1 ovarian

| SMILES | TGI (EKVX NSCLC) [µM] | TGI (HCC-2998 colon) [µM] | TGI (HCT-116 colon) [µM] | TGI (HCT-15 colon) [µM] | TGI (HOP-62 NSCLC) [µM] | TGI (K-562 leukemia) [µM] | TGI (NCI-H226 lung) [µM] | TGI (NCI-H23 lung) [µM] | TGI (OVCAR-8 ovarian) [µM] | TGI (IGROV1 ovarian) [µM] | GI50 (EKVX NSCLC) [µM] | GI50 (HCC-2998 colon) [µM] | GI50 (HCT-116 colon) [µM] | GI50 (HCT-15 colon) [µM] | GI50 (HOP-62 NSCLC) [µM] | GI50 (IGROV1 ovarian) [µM] | GI50 (K-562 leukemia) [µM] | GI50 (NCI-H226 lung) [µM] | GI50 (NCI-H23 lung) [µM] | GI50 (OVCAR-8 ovarian) [µM] |
| --- | --- | --- | --- | --- | --- | --- | --- | --- | --- | --- | --- | --- | --- | --- | --- | --- | --- | --- | --- | --- |
| COc1ccc2c(c1)CCc1cnn(C3OC(COC(C)=O)C(OC(C)=O)C(OC(C)=O)C3OC(C)=O)c1-2 (configuration not stated) | > 100 | > 100 | > 100 | > 100 | > 100 | > 100 | > 100 | > 100 | > 100 | – | – | – | – | – | – | – | – | – | – | – |
| COC(=O)CCC(=O)CC(=O)C(=O)Nc1ccc(F)cc1 | > 100 | > 100 | > 100 | > 100 | > 100 | > 100 | > 100 | > 100 | > 100 | > 100 | – | – | – | – | – | – | – | – | – | – |
| CCCCCCCCCCCC1=NC(C)(C)CN1CCO | 29.5 | 3.63 | 3.76 | 4.42 | 16.2 | 5.57 | 36.2 | 18.6 | 29.9 | 6.67 | 10.7 | 1.87 | 1.94 | 1.98 | 4.6 | 2.57 | 2.44 | 15.4 | 5.56 | 10.7 |
| CSC(=S)N/N=C/c1ccccc1 | > 100 | > 100 | > 100 | > 100 | > 100 | > 100 | > 100 | > 100 | > 100 | > 100 | – | – | – | – | – | – | – | – | – | – |
| CC(C)c1ccc2c(N=Nc3ccc(S(N)(=O)=O)cc3)c(O)[nH]c2c1 | > 25 | > 25 | > 25 | > 25 | 12.6 | > 25 | > 20.6 | > 25 | > 20.1 | > 25 | > 16.6 | > 21.1 | 11 | > 22.6 | 5.54 | > 15.5 | > 25 | 6.62 | 11.1 | 10.3 |
| C=C1C(=O)O[C@H]2[C@H]1CC/C(C=Nc1ccc(C(F)(F)F)cc1N)=C\CC[C@@]1(C)O[C@@H]21 | 23.4 | 34.9 | 11 | 13.6 | 26.5 | 16.5 | 32.2 | 25.7 | 15.9 | 18.4 | 10.8 | 16 | 2.38 | 3.48 | 12.8 | 3.36 | 4.39 | 10 | 10.7 | 4.29 |
| COc1ccc2c(CC(=O)O)cc(=O)oc2c1 | > 100 | > 100 | > 100 | > 100 | > 100 | > 100 | > 100 | > 100 | > 100 | > 100 | – | – | – | – | – | – | – | – | – | – |
| COc1ccc2nc3cccc([N+](=O)[O-])c3c(NCCN(CCO)CCO)c2c1 | 0.698 | 0.0331 | 0.607 | 60.8 | 0.153 | 0.0487 | 0.536 | 0.048 | 0.138 | 0.242 | 0.107 | 0.0137 | 0.0154 | 0.157 | 0.0304 | 0.0329 | 0.013 | 0.0822 | 0.0202 | 0.014 |
| CNc1nnnn1C1OC(CO)C(O)C1O (configuration not stated) | > 100 | > 100 | > 100 | > 100 | > 100 | > 100 | > 100 | – | > 100 | > 100 | – | – | – | – | – | – | – | – | – | – |
| COc1c(OC(C)=O)c(OC(C)=O)cc2c1-c1ccc(OC)c(=O)cc1C(NC(C)=O)CC2 (configuration not stated) | > 100 | 24.8 | 0.942 | > 70 | > 73 | > 100 | 1.09 | 5.24 | > 70.1 | > 100 | – | – | – | – | – | – | – | – | – | – |
| CC1(C)CC[C@]2(C(=O)n3ccnc3)CC[C@]3(C)[C@H](C(=O)C=C4[C@@]5(C)C=C(C#N)C(=O)C(C)(C)[C@@H]5CC[C@]43C)[C@@H]2C1 | 0.545 | < 0.01 | 0.0273 | 0.0204 | 0.0402 | 0.13 | < 0.0499 | 0.0786 | – | < 0.0292 | 0.141 | < 0.01 | < 0.0112 | < 0.01 | 0.0105 | < 0.0106 | < 0.01 | < 0.0178 | < 0.0151 | < 0.01 |
| C=C1C(=O)O[C@H]2[C@H]1CC/C(COC(=O)/C=C\C(=O)NCc1ccc(Cn3c(=O)sn(-c4ccc(OC)cc4)c3=O)cc1)=C\CC[C@@]1(C)O[C@@H]21 | 1.51 | 1.67 | 0.755 | 1.56 | 10 | 50 | 5.51 | 1.84 | 2.62 | 1.21 | 0.773 | 0.881 | 0.171 | 0.443 | 2.76 | 0.505 | 0.603 | 1.28 | 0.863 | 0.755 |
